# Experimental data published in patent US8545886B2, “Extended release tablet formulations of flibanserin and method for manufacturing the same” (Boehringer Ingelheim International GmbH, priority 2006, dated 2013).
# Experiment: Solubility of flibanserin in aqueous media
# Assay type: physicochemical
# Excerpt: In acidic environment compounds such as flibanserin are usually very well water soluble whereas in neutral or basic environment these drugs can be practically insoluble. […] These physicochemical properties of basic compounds make it difficult to develop extended release dosage forms. There is a natural pH gradient from the acidity of the stomach where the pH of physiological fluids are typically around 1-2, through the weakly acidic duodenum to the virtually neutral environment of the small intestine where the pH is in the range of 5-8.
smiles,measurement,setting,value
"O=c1[nH]c2ccccc2n1CCN1CCN(c2cccc(C(F)(F)F)c2)CC1 [flibanserin, 1,3-dihydro-1-[2-[4-[3-(trifluoromethyl)phenyl]-1-piperazinyl]ethyl]-2H-benzimidazole-2-one]",solubility,"aqueous buffer, in 0.05 M phosphate buffer pH 6.8",2 µg/mL
same,solubility,"simulated gastric fluid, in 0.1 N HCl",6200 µg/mL
